Legend:
HCT-8 cells = assay: Lipid droplets in HCT-8 cells, Oil Red O staining; format: cell-based, human; conditions: 1000 mg/ml DON or 2 μM ANS, 24 h, FIG. 2
Procedure: To confirm the effect of ribosome inactivation on fat accumulation, enterocyte and hepatocyte exposed to ribosome inactivation stress using the ribosome-binding agent were stained with Oil Red O.
Specifically, HCT-8 cells and HepG2 cells were obtained from the American Type Culture Collection (ATCC Rockville, Md., USA). HCT-8 and HepG2 cells were treated with vehicle, […], or 2 μM anisomycin (ANS) for 24 h. […] The staining results of HCT-8 cells are illustrated in FIG. 2 and the staining results of HepG2 cells are illustrated in FIG. 3.

LDLR [1] = assay: mRNA level of LDLR in HCT-8 cells, real-time RT-PCR; format: cell-based, human; conditions: HCT-8 cells, 100, 500, 1000 ng/ml DON or 500, 1000, 2000 nM ANS, 2 hours, dose dependent, FIG. 10
Procedure: Further, HCT-8 cells were treated with vehicle or 1000 ng/ml DON for the indicated time. In these treated cells, an mRNA level of LDLR was measured using real-time RT-PCR. Specifically, RNA was extracted using RiboEX (GeneAll Biotechnology, Seoul, Korea). Subsequently, the RNA (100 ng) from each sample was transcribed into cDNA using Prime Moloney murine leukemia virus reverse transcriptase (Genetbio, Nonsan, South Korea). The cDNA was then amplified using n-Taq DNA polymerase (Enzynomics, Seoul, South Korea). The amplified cDNA was treated at 95° C. for 2 minutes. The cDNA was then treated for 30 seconds at 95° C., for 30 seconds at 58° C. and for 30 seconds at 72° C. at each of different cycles. The thus treated cDNA was amplified and the amplification thereof was confirmed by electrophoresis. FAM was used as a fluorescent reporter staining drug. FAM was conjugated to a 5′ terminal of a product of the amplified cDNA. The resulting product was subjected to real-time RT-PCR using an iCycler thermal cycler (Bio-Rad). […]
Additionally, to determine the effect of chemical ribosome inactivators (DON, ANS) at different doses on the LDLR expression level, HCT-8 cells were treated with vehicle, 0, 100, 500, 1000 ng/ml DON or 0, 500, 1000, 2000 nM ANS for 2 hours. Then, mRNA levels of LDLR in the cells were measured using real-time RT-PCR. […] The mRNA level of the LDLR of the cells was measured. […]

LDLR [2] = assay: mRNA level of LDLR in HepG2 cells, real-time RT-PCR; format: cell-based, human; conditions: HepG2 cells, 100, 500, 1000 ng/ml DON or 500, 1000, 2000 nM ANS, 1 hour, dose dependent, FIG. 11
LDLR [3] = assay: Protein level of LDLR in HCT-8 cells, Western blot; format: cell-based, human; conditions: whole cell lysates, FIG. 9
Procedure: Further, HCT-8 cells were treated with vehicle or 1000 ng/ml DON for the indicated time. Thereafter, protein levels of LDLR were measured using whole cell lysates via Western blots. Specifically, the cells were washed with phosphate buffer. Subsequently, the cells were dissolved in lysis buffer (1% [w/v] SDS, 1.0 mM sodium orthovanadate, and 10 mM Tris [pH 7.4]). The lysate was sonicated for 5 seconds. The lysate was quantitated using the BCA protein assay kit (Pierce, Rockford, Ill., USA). Subsequently, immunoblotting was carried out to confirm the level of the protein in the cells. The results are illustrated in FIG. 9.

LDLR [4] = assay: LDLR immunohistochemistry in ileum and jejunum of mice fed DON; format: in vivo; conditions: 25 mg/kg DON oral feeding, after 24 hours, IHC, FIG. 12
Procedure: Further, additional animal studies were performed to determine whether ribosome-inactivation stress increases a level of LDLR expression in the small intestine. Six-week-old male B6C3F1 mice (C57B1/6J×C3H/HeJ) were purchased from Samtako Bio Korea (Osan, South Korea). Animal experiments were performed according to the animal test method as approved in the Laboratory Animal Care Committee (PNU-2010-0291). Vehicle or 25 mg/kg DON was administered to the mice via oral feeding. After 24 hours, immunohistochemistry (IHC) was performed on ileum and jejunum to measure LDLR expression levels. The results are illustrated in FIG. 12.

Row | Structure (SMILES) | fat accumulation in HCT-8 cells (HCT-8 cells) | mRNA level of LDLR (LDLR [1]) | mRNA level of LDLR (LDLR [2]) | protein levels of LDLR (LDLR [3]) | level of LDLR expression in the mouse small intestine (villus epithelium of ileum and jejunum) (LDLR [4])
1 | COc1ccc(C[C@H]2NC[C@H](O)[C@H]2OC(C)=O)cc1 [ANS, anisomycin] | dose-dependently increased | increases | increases | increases | 
2 | CC1=C[C@H]2O[C@@H]3[C@H](O)C[C@](C)([C@@]2(CO)[C@H](O)C1=O)[C@]31CO1 [DON, deoxynivalenol] | dose-dependently increased | increases | increases | increases | increase
